Assay results: ChEMBL document CHEMBL4613209, “Quinolone hybrids and their anti-cancer activities: An overview” (Eur J Med Chem, 2019)

How the values were obtained:
[1] = target: RAC-alpha serine/threonine-protein kinase (Homo sapiens, UniProt P31749); test: Inhibition of PKBalpha (unknown origin)
[2] = target: RAC-beta serine/threonine-protein kinase (Homo sapiens, UniProt P31751); test: Inhibition of PKBbeta (unknown origin)
[3] = target: RAC-gamma serine/threonine-protein kinase (Homo sapiens, UniProt Q9Y243); test: Inhibition of PKBgamma (unknown origin)
[4] = target: T1, Inhibitor of nuclear factor kappa-B kinase subunit alpha (Homo sapiens, UniProt O15111); test: Inhibition of IKKalpha (unknown origin)
T1 sequence (O15111 whole entry): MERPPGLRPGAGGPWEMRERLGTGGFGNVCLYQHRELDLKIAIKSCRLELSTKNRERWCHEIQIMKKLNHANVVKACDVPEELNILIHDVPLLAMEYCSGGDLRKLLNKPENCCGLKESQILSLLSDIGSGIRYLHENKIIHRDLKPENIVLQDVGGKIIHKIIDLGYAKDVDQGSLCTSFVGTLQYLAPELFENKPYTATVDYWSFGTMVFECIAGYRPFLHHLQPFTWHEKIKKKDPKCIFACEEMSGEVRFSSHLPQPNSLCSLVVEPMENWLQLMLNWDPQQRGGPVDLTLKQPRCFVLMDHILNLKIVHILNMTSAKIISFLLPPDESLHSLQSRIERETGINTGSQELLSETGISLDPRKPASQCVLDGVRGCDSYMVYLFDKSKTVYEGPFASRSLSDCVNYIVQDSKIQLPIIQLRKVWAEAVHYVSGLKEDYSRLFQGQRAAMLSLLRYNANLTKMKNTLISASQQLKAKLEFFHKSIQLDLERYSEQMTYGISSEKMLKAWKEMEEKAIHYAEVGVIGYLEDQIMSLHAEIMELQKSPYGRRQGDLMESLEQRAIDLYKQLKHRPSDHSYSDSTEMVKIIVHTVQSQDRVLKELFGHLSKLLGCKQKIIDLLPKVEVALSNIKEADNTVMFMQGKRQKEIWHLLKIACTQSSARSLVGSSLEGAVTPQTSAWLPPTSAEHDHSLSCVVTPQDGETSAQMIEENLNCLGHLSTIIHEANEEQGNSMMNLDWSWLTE

[5] = target: T2, Inhibitor of nuclear factor kappa-B kinase subunit beta (Homo sapiens, UniProt O14920); test: Inhibition of IKKbeta (unknown origin)
T2 sequence (O14920 whole entry): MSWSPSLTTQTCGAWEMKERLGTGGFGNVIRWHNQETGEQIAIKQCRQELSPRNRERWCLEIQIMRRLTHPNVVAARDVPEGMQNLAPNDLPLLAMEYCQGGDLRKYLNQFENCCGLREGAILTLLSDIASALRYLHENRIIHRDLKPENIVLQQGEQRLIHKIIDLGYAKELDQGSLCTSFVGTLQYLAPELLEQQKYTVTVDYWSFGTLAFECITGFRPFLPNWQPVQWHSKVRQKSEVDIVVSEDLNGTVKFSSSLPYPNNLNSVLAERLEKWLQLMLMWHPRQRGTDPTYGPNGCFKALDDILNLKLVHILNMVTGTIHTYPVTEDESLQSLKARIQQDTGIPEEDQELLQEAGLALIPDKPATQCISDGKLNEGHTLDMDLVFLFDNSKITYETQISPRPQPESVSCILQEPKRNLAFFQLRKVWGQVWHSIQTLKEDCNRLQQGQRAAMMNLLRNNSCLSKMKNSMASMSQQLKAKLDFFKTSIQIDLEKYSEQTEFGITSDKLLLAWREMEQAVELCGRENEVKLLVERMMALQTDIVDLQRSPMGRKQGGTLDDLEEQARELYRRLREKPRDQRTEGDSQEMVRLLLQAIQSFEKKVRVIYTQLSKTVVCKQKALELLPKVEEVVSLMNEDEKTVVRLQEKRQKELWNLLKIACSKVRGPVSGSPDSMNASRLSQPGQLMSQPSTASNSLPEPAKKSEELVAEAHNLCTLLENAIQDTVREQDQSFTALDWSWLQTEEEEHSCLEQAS

MCF7 [6] = test: Cytotoxicity against human MCF7 cells assessed as reduction in cell viability after 48 hrs by MTT assay; assay type: functional, cell-based; settings: MCF7, 48 h
T47D = test: Cytotoxicity against human T47D cells assessed as reduction in cell viability after 48 hrs by MTT assay; assay type: functional, cell-based
MDA-MB-231 = test: Cytotoxicity against human MDA-MB-231 cells assessed as reduction in cell viability after 48 hrs by MTT assay; assay type: functional, cell-based; settings: MDA-MB-231, 48 h
A549 = test: Antiproliferative activity against human A549 cells by CCK8 assay; assay type: functional, cell-based
HepG2 = test: Antiproliferative activity against human HepG2 cells by CCK8 assay; assay type: functional, cell-based
MCF7 [7] = test: Antiproliferative activity against human MCF7 cells by CCK8 assay; assay type: functional, cell-based
PC-3 = test: Antiproliferative activity against human PC3 cells by CCK8 assay; assay type: functional, cell-based
HeLa = test: Antiproliferative activity against human HeLa cells by CCK8 assay; assay type: functional, cell-based
MCF-10A = test: Antiproliferative activity against human MCF10A cells by CCK8 assay; assay type: cell-based

RAC-alpha serine/threonine-protein kinase, sequence (P31749 whole entry): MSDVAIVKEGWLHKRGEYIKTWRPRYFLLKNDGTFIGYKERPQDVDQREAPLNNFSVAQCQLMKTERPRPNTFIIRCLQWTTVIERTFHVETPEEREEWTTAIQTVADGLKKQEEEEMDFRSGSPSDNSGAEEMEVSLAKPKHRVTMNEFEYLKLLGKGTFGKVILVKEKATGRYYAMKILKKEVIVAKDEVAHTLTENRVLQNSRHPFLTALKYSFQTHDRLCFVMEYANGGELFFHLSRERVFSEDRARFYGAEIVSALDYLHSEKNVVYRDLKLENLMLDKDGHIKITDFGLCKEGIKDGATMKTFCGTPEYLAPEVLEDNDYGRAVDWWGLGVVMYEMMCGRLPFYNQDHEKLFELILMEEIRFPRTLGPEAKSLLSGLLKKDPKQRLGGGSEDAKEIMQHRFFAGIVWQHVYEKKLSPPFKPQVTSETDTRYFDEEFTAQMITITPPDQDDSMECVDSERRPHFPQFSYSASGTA
RAC-gamma serine/threonine-protein kinase, sequence (Q9Y243 whole entry): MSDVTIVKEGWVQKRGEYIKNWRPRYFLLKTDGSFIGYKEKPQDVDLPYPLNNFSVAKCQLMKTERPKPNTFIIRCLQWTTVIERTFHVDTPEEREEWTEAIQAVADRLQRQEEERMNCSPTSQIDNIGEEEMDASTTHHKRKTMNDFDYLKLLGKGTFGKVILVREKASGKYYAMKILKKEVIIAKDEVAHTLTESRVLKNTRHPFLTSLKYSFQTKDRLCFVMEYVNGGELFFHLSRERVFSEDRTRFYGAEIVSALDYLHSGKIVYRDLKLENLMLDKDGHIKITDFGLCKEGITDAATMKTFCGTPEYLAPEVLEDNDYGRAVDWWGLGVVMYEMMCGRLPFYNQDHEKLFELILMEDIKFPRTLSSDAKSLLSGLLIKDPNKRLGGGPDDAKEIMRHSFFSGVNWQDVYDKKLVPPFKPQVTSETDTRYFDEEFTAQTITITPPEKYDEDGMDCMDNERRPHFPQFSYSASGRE
RAC-beta serine/threonine-protein kinase, sequence (P31751 whole entry): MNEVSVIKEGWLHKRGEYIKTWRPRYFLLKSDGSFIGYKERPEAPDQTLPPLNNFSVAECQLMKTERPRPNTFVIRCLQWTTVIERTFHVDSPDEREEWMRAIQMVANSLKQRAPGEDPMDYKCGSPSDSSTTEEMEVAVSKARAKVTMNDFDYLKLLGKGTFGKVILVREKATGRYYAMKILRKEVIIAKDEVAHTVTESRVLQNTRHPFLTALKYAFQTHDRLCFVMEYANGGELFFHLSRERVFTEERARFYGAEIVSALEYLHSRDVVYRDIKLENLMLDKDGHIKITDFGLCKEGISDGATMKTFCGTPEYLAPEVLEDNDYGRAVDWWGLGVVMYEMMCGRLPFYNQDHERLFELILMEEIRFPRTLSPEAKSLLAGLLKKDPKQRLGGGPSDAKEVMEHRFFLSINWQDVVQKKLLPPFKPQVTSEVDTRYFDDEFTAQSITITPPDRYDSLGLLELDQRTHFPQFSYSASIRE

| IC50 [1] [µM] | IC50 [2] [µM] | IC50 [3] [µM] | IC50 [4] [µM] | IC50 [5] [µM] | Structure (SMILES) | IC50 (MCF7 [6]) [µM] | IC50 (T47D) [µM] | IC50 (MDA-MB-231) [µM] | also measured |
| --- | --- | --- | --- | --- | --- | --- | --- | --- | --- |
| 1.64 to 44.5 | 1.64 to 44.5 | 1.64 to 44.5 | 1.64 to 44.5 | 1.64 to 44.5 | O=C(/C=C/c1nc2ccccc2[nH]1)c1c(-c2ccccc2)c2cc(Br)ccc2[nH]c1=O | – | – | – | – |
| – | – | – | – | – | CCc1ccc2c(c1)c(=O)c1ccccc1n2Cc1cn(Cc2cc(OC)c(OC)c(OC)c2)nn1 | > 100 | > 100 | > 100 | – |
| – | – | – | – | – | COc1cc(Cn2cc(Cn3c4ccccc4c(=O)c4ccccc43)nn2)cc(OC)c1OC | > 100 | > 100 | > 100 | – |
| – | – | – | – | – | COc1cc(Cn2cc(Cn3c4ccccc4c(=O)c4cc(Cl)ccc43)nn2)cc(OC)c1OC | > 100 | > 100 | > 100 | – |
| 1.64 to 44.5 | 1.64 to 44.5 | 1.64 to 44.5 | 1.64 to 44.5 | 1.64 to 44.5 | O=C(/C=C/c1nc2cc(F)ccc2[nH]1)c1c(-c2ccc(F)cc2)c2cc(F)ccc2[nH]c1=O | – | – | – | – |
| 1.64 to 44.5 | 1.64 to 44.5 | 1.64 to 44.5 | 1.64 to 44.5 | 1.64 to 44.5 | Cc1ccc2[nH]c(/C=C/C(=O)c3c(-c4ccccc4)c4cc(Cl)ccc4[nH]c3=O)nc2c1 | – | – | – | – |
| – | – | – | – | – | COc1cc(Cn2cc(Cn3c4ccccc4c(=O)c4cccc(F)c43)nn2)cc(OC)c1OC | > 100 | > 100 | > 100 | – |
| – | – | – | – | – | C[C@H]1COc2c(N3CCN(C)CC3)c(F)cc3c(=O)c(C(=O)NCc4cn(CCCCCCCC(=O)O)nn4)cn1c23 | – | – | – | IC50 (A549): 7.8 to 16.5 µM; IC50 (HepG2): 7.8 to 16.5 µM; IC50 (MCF7 [7]): 7.8 to 16.5 µM; IC50 (PC-3): 7.8 to 16.5 µM; IC50 (HeLa): 7.8 to 16.5 µM; IC50 (MCF-10A): > 100 µM |
| – | – | – | – | – | C[C@H]1COc2c(N3CCN(C)CC3)c(F)cc3c(=O)c(C(=O)OCc4cn(CCCCCCC(=O)O)nn4)cn1c23 | – | – | – | IC50 (A549): 7.8 to 16.5 µM; IC50 (HepG2): 7.8 to 16.5 µM; IC50 (MCF7 [7]): 7.8 to 16.5 µM; IC50 (PC-3): 7.8 to 16.5 µM; IC50 (HeLa): 7.8 to 16.5 µM; IC50 (MCF-10A): > 100 µM |
| 1.64 to 44.5 | 1.64 to 44.5 | 1.64 to 44.5 | 1.64 to 44.5 | 1.64 to 44.5 | Cc1ccc2[nH]c(=O)c(C(=O)/C=C/c3nc4ccccc4[nH]3)c(-c3ccccc3)c2c1 | – | – | – | – |
| – | – | – | – | – | C[C@H]1COc2c(N3CCN(C)CC3)c(F)cc3c(=O)c(C(=O)NCc4cn(CCCCCC(=O)O)nn4)cn1c23 | – | – | – | IC50 (A549): 7.8 to 16.5 µM; IC50 (HepG2): 7.8 to 16.5 µM; IC50 (MCF7 [7]): 7.8 to 16.5 µM; IC50 (PC-3): 7.8 to 16.5 µM; IC50 (HeLa): 7.8 to 16.5 µM; IC50 (MCF-10A): > 100 µM |
| – | – | – | – | – | COc1ccc(Cn2cc(Cn3c4ccccc4c(=O)c4cc(OC)ccc43)nn2)cc1 | 11 to 16.6 | 11 to 16.6 | 11 to 16.6 | – |
| 1.64 to 44.5 | 1.64 to 44.5 | 1.64 to 44.5 | 1.64 to 44.5 | 1.64 to 44.5 | Cn1c(=O)c(C(=O)/C=C/c2nc3cc(F)ccc3[nH]2)c(-c2ccccc2)c2cc(Cl)ccc21 | – | – | – | – |
| – | – | – | – | – | C[C@H]1COc2c(N3CCN(C)CC3)c(F)cc3c(=O)c(C(=O)OCc4cn(CCCCCC(=O)O)nn4)cn1c23 | – | – | – | IC50 (A549): 7.8 to 16.5 µM; IC50 (HepG2): 7.8 to 16.5 µM; IC50 (MCF7 [7]): 7.8 to 16.5 µM; IC50 (PC-3): 7.8 to 16.5 µM; IC50 (HeLa): 7.8 to 16.5 µM; IC50 (MCF-10A): > 100 µM |
| 1.64 to 44.5 | 1.64 to 44.5 | 1.64 to 44.5 | 1.64 to 44.5 | 1.64 to 44.5 | O=C(/C=C/c1nc2cc(F)ccc2[nH]1)c1c(-c2ccccc2)c2cc(Cl)ccc2[nH]c1=O | – | – | – | – |
